From paper PMC12040169 (PLOS Biology, 2025)

Experiment: in vitro
Details: human, hela cells, % viability

| Structure (SMILES) | viability at 28.5 h, 10 µM [%] |
| --- | --- |
| COc1cccc(CN2CCCC(c3nc(C)n4ccccc34)C2)c1 (stereo not drawn) [CBK282989] | 101 |
| O=C(Cn1cc(Br)ccc1=O)NC1CCN(Cc2ccccn2)CC1 [CBK305686] | 92.2 |
| Cc1ccc(CNc2c(-c3ccco3)nc3cnccn23)cc1 [CBK283693] | 89.3 |
| COc1ccccc1CCCNC(=O)c1ccc2nc(C)[nH]c2c1 [CBK283258] | 84.7 |
| O=C(O)c1ccc(/C=N/NC(=O)C2COc3ccccc3O2)cc1 (stereo not drawn) [CBK261481] | 100 |
| CC(C)CNC(=S)N[C@H]1CC[C@@]2(c3cccnc3)CCN(Cc3ccccc3)[C@H]2C1 [CBK028460] | 125 |
| Nc1ncc(-c2ccc(O)cc2)nc1N1CCN(CCO)CC1 [CBK063685] | 105 |
| C#CCN(C1CCc2ccccc21)S(=O)(=O)c1cc(C(=O)NC)n(C)c1 (stereo not drawn) [CBK306235] | 91.8 |
| COc1ccccc1N1CCN(C(=O)NCc2cnc(C)cn2)CC1 [CBK155367] | 105 |
| Nc1ncc(-c2ccccc2)nc1NCc1cccnc1 [CBK063452] | 116 |
| COc1ccc(OC)c(-n2nnnc2SCC2CCCN(C)C2)c1 (stereo not drawn) [CBK305386] | 84.2 |
| CS(=O)(=O)Nc1nnc(C2CCCCC2)s1 [CBK069540] | 95.6 |
| Cc1ccc(CS(=O)(=O)NCCn2nc(C)c(C)c2C)cc1 [CBK281383] | 91.2 |
| O=C1N[C@@H]2CCN(C(=O)CCn3ccccc3=O)C[C@@H]2CCCCCOc2ccccc21 [CBK292039] | 94.2 |
| COc1ccc(-c2cnc(N)c(NC3CCOCC3)n2)c(OC)c1OC [CBK063844] | 113 |
| CCn1ccc(C(=O)NC(c2cncc(OC)c2)[C@H]2C[C@@H](O)C2)cc1=O (stereo partly drawn) [CBK307696] | 110 |
| CC(C)C(=O)N[C@@H](C)Cn1c(C(F)(F)F)cc2cccnc21 [CBK283231] | 95.6 |
| O=S(=O)(O)c1cc(S(=O)(=O)O)c2cc(O)c(S(=O)(=O)O)cc2c1 [CBK278319N] | 96.7 |
| Cc1ccccc1NC(=O)Cn1c(=O)n(CC(=O)Nc2ccccc2C)c2ccccc21 [CBK266938] | 101 |
| Cc1ccccc1Nc1nc(-c2ccc([N+](=O)[O-])cc2)nc2ccccc12 [CBK264803] | 119 |
| NCCn1cc(-c2cccc(F)c2)c(C2CCOCC2)n1 [CBK281696] | 91.1 |
| CS(=O)(=O)N1CCc2cc(S(=O)(=O)N3CCN(c4ccc([N+](=O)[O-])c(NCc5ccccc5)c4)CC3)ccc21 [CBK268311] | 102 |
| CC(C)CN1C(=S)N(Cc2ccc(-c3ccccn3)cc2)[C@H]2[C@H]3OC(=O)[C@H](C[C@H]3O)[C@H]21 [CBK288938] | 113 |

| Structure (SMILES) | viability at 28.5 h, 10 µM [%] |
| --- | --- |
| Cc1c(C(C)N)cnn1-c1ccc(C#N)cc1 (stereo not drawn) [CBK305869] | 80.9 |
| CC(C)NC(=O)c1sc2ccccc2c1C1CCN(C(=O)COc2ccccc2)C1 (stereo not drawn) [CBK285875] | 113 |
| CCc1ccc(C(=O)Nc2ccc(NC(C)=O)cc2C(F)(F)F)cc1 [CBK295202] | 84.1 |
| FC(F)(F)c1nc2ccccc2nc1SCc1ccccc1 [CBK103732] | 87 |
| NC(=O)c1cccnc1-c1nc2ccccc2s1 [CBK287930] | 80 |
| C[N+]1(CC(=O)c2ccccc2)C2CCC1CC(OC(=O)C(O)c1ccccc1)C2 (stereo not drawn) [CBK022712C] | 120 |
| CN(CCc1cn[nH]c1)C(=O)CCc1ccc(Cl)cc1 [CBK283183] | 91.1 |
| CCC(O)Cn1nc(CCSC)nc1-c1cc(=O)n(C)c2ccccc12 (stereo not drawn) [CBK306596] | 83.6 |
| CN1C2C=C(N(CCc3ccccc3)C(=O)c3ccc(Cl)cc3)CC1CC2 (stereo not drawn) [CBK262604C] | 94.7 |
| Cc1nc(-c2ccccc2)sc1CNC(=O)/C=C/c1c[nH]cn1 [CBK092368] | 83.3 |
| CCNS(=O)(=O)c1ccc(NS(=O)(=O)Cc2ccccc2)cc1 [CBK268257] | 100 |
| FC(F)(F)c1cccc(SCc2ccc(Cl)cc2)n1 [CBK107197] | 91.9 |
| CCCCN1CC(C(=O)OCC)=C(O)C1=O [CBK028774] | 110 |
| O=C1c2cc(S(=O)(=O)NCc3ccco3)ccc2-c2ccc(S(=O)(=O)NCc3ccco3)cc21 [CBK262250] | 98.5 |
| CC(=O)c1c(C(C)=O)c(C)n(-c2ccc(C(=O)O)cc2)c1C [CBK287036] | 90.9 |
| N#C/C(=C\c1ccc(-c2cccc(C(=O)O)c2)o1)c1nc2ncc(Br)cc2[nH]1 [CBK265054] | 96.1 |
| O=C(Cn1ncc2cccn2c1=O)c1ccc(F)cc1 [CBK283627] | 82.7 |
| CCNC(=O)C1(Cc2ccccc2-c2cccnc2)CCOCC1 [CBK285218] | 103 |
| CN1C(=O)COc2ccccc2C/C=C/C[C@H]2NCCC[C@H]21 [CBK292156] | 80.9 |
| Cc1nc2sccn2c(=O)c1NC(=O)c1ccccn1 [CBK287665] | 87.2 |
| CN(C)C(=O)CN1CCC2(C/C=C/COc3ccccc3C(=O)NC[C@@H](Cc3ccccc3)NC2=O)CC1 [CBK292185] | 107 |
| O=c1[nH]c(Nc2ccccc2)nc2nccc(-c3ccccc3)c12 [CBK288072] | 88.8 |
| Cc1nn(C)c(N2CCNCC2)c1NC(=O)CN(C)C(=O)c1ccccc1 [CBK050255T] | 109 |

| Structure (SMILES) | viability at 28.5 h, 10 µM [%] |
| --- | --- |
| CSc1nnnn1-c1cccc(NC(=O)N2CCCN(C)CC2)c1 [CBK304180] | 78.1 |
| Cn1c(=O)c2c(ncn2CCOc2cnc(-c3cnn(Cc4ccccc4)c3)c(N)n2)n(C)c1=O [CBK145193] | 97.4 |
| CCCC/C=C/c1cn2ccnc2c(NCCc2cccnc2)n1 [CBK066235] | 105 |
| COc1ccc(S(=O)(=O)NC(C)C(=O)NCc2ccncc2)cc1 (stereo not drawn) [CBK269441] | 107 |
| CN(C)CC(C)(C)CNC1CCN(C)CC1 [CBK261926] | 95.2 |
| O=C(O)c1ccccc1C(=O)Nc1cccc(-c2noc(-c3cccc(F)c3)n2)c1 [CBK299813] | 92 |
| COc1cc(-c2nccnc2NCc2ccco2)cc(OC)c1OC [CBK037072] | 111 |
| COc1cc2c(cc1OC)CN(C(=O)Cc1ccccc1)CC2 [CBK122751] | 90.7 |
| COc1ccc(C=Cc2cc(C(=O)O)c3ccccc3n2)cc1OC(F)F [CBK296953] | 85.9 |
| NS(=O)(=O)c1ccc(NS(=O)(=O)c2ccc(NC(=O)Nc3ccc(Cl)cc3)cc2)cc1 [CBK264902] | 90.9 |
| Cc1nc(NS(=O)(=O)c2c(C)noc2C)sc1C(=O)O [CBK045562] | 85.7 |
| CCn1cc(S(=O)(=O)NC2(c3ccc(F)cc3)CC2)cn1 [CBK282801] | 112 |
| Cc1cc(N2CCOCC2)c2c(N)c(Br)cc(C)c2n1 [CBK066880] | 73 |
| N#Cc1nccnc1NCc1ccccc1CN1CCCC1CO (stereo not drawn) [CBK306418] | 102 |
| CC(NC(=O)CCc1ccncc1)C1CC2CCC1C2 (stereo not drawn) [CBK282090] | 99.8 |
| CCOC(=O)c1sc2nc(C)ccc2c1N [CBK115377] | 96.5 |
| N#Cc1c(-c2ccccc2)noc1C/C=N/O [CBK007357] | 87.7 |
| COc1ccc(CNC(=S)Nc2cccc(C(F)(F)F)c2)cc1OC [CBK266977] | 101 |
| O=C(CCn1c(C(F)(F)F)cc2cccnc21)NC1CCCC1 [CBK284864] | 103 |
| CC(C)Cn1c(=O)c2c(nc3n2CCS3)n(C)c1=O [CBK307109] | 98.1 |
| CC(C)CN1C[C@H]2N(C)C(=O)c3ccccc3C(=O)[C@@]2(C)C1 [CBK283477] | 86.6 |
| Cc1nnc2c(N3CCN(CCO)CC3)nc3ccccc3n12 [CBK270146] | 83.2 |
| COc1ccc(NS(=O)(=O)c2ccc(N3CCCC3=O)cc2)cn1 [CBK270216] | 84.9 |

| Structure (SMILES) | viability at 28.5 h, 10 µM [%] |
| --- | --- |
| Cc1ccc(F)c(OC2(C(=O)O)CCN(Cc3ncc[nH]3)CC2)c1 [CBK307062] | 85.2 |
| O=C(O)c1ccc(Cl)c2c1C1C=CCC1C(c1ccccn1)N2 (stereo not drawn) [CBK287087] | 86.9 |
| Cc1cc(-c2ccc(=O)n(CCNC(=O)C3CC3)n2)c(C)o1 [CBK284521] | 93.2 |
| O=C(Nc1cccc(C(=O)O)c1)Nc1ccc(Cl)c(Cl)c1 [CBK155455G] | 88.7 |
| O=C(Cc1ccc(NS(=O)(=O)c2cc(Cl)c(Cl)s2)nc1)N1CCOCC1 [CBK003790] | 96.5 |
| NNc1ccc(/C=C/c2ccc(NN)cc2S(=O)(=O)O)c(S(=O)(=O)O)c1 [CBK278163N] | 91.1 |
| O=[N+]([O-])c1cccnc1Oc1cccc2cccnc12 [CBK002760] | 97.4 |
| CN(C)c1ncccc1CNC(=O)c1ccccn1 [CBK297774] | 81.5 |
| C[C@@H](Cn1nc2c(cc1=O)CCCC2)NC(=O)c1ccc(F)cc1 [CBK284562] | 91.3 |
| O=S(=O)(c1ccc(-c2ccc(S(=O)(=O)N3CCCCC3)cc2)cc1)N1CCCCC1 [CBK261257] | 92.2 |
| O=C(c1cccnc1)N1C[C@@H]2OCC(=O)N(Cc3ccc(F)cc3)[C@@H]2C1 [CBK289691] | 96.1 |
| CC(C)(C)OC(=O)N1CCN(Cc2nnc(Cc3ccccc3)o2)CC1 [CBK306223] | 94.1 |
| CC(=O)Nc1cccc(CN2CCCC2CC(O)c2ccccc2)c1 (stereo not drawn) [CBK305136] | 104 |
| CC(C)C(=O)N1CCC(c2nc3ccc(F)cc3cc2N)CC1 [CBK284656] | 81.5 |
| CCc1c(C)nc2ccccc2c1SCC(=O)O [CBK153279] | 83.9 |
| CCOCCCNC(=O)/C(=C/c1cccnc1)NC(=O)c1ccccc1 [CBK126866] | 90.8 |
| c1ccc(COC(c2ccccc2)c2nc3ccccc3n2Cc2ccccc2)cc1 (stereo not drawn) [CBK267311] | 98.2 |
| O=C(Cn1ncc2cccn2c1=O)Nc1ccc(F)cc1 [CBK283672] | 107 |
| CC(C)(C)NC(=O)Cn1c(-c2cccs2)cc2cccnc21 [CBK282455] | 97.1 |
| O=C(CCC(=O)c1ccc(Cl)cc1)OCC(=O)c1cccc(I)c1 [CBK264760] | 89.9 |
| CN(CCc1ccncc1)C(=O)c1cc2ccc(F)cc2[nH]1 [CBK283215] | 81.3 |
